Laboratory results taken from ChEMBL document CHEMBL3217423, “Binding of 9-O-(-amino) alkyl ether analogues of the plant alkaloid berberine to poly(A): insights into self-structure induction” (Medchemcomm, 2011).
Active and inactive are the calls of the source. No cut-off for these calls is given here.

What was measured:
[1] = Binding affinity to poly(A) tail mRNA (unknown origin) assessed as induction of self-structure formation by circular dichroic spectroscopy
[2] = Binding affinity to poly(A) tail mRNA (unknown origin) assessed as induction of self-structure formation by circular dichroism analysis
[3] = Binding affinity to poly(A) tail mRNA (unknown origin) assessed as melting temperature of poly(A) self-structure by UV absorption/CD melting analysis
[4] = Binding affinity to poly(A) tail mRNA (unknown origin) assessed as apparent binding constant by absorption spectroscopy relative to berberine
[5] = Binding affinity to poly(A) tail mRNA (unknown origin) assessed as association constant by isothermal titration calorimetry relative to berberine

Q: Which results are given for `COc1ccc2cc3[n+](cc2c1OC)CCc1cc2c(cc1-3)OCO2` [BERBERINE]?
A: Activity [1]: Active; Activity [2]: Active; Tm [3]: 58 °C

Q: With `COc1ccc2cc3[n+](cc2c1OCCCCCCN)CCc1cc2c(cc1-3)OCO2` as the compound, how does the Activity [1] read?
A: Its Activity is “Active”.

Q: And the Activity [2]?
A: Its Activity is “Active”.

Q: What about the Ratio [4] of the same compound?
A: Its Ratio is 20.

Q: And the Ratio [5]?
A: Its Ratio is 10.

Q: And the Tm [3]?
A: Its Tm is 59.5 °C.

Q: Which Ratio [5] does the source give for `COc1ccc2cc3[n+](cc2c1OCCN)CCc1cc2c(cc1-3)OCO2` here?
A: Its Ratio is 3.

Q: What about the Tm [3] of the same compound?
A: The Tm was 59 °C.

Q: With `COc1ccc2cc3[n+](cc2c1OCCCCN)CCc1cc2c(cc1-3)OCO2` as the compound, how does the Activity [1] read?
A: The Activity was “Active”.

Q: And the Activity [2]?
A: The Activity was “Active”.

Q: And the Tm [3]?
A: Its Tm is 58 °C.
